The source of these data is US8309581B2, “Benzimidazole derivatives” (Hoffmann-La Roche Inc., priority 2009, dated 2012).

SMILES strings stand for the structures.

In the test the target is T1, FXR ligand binding domain (Homo sapiens, UniProt Q96RI1).
T1 construct: made in house; host or cells: E. coli BL21 (pLysS)
T1 sequence (Q96RI1 193-472 isoform Q96RI1-2): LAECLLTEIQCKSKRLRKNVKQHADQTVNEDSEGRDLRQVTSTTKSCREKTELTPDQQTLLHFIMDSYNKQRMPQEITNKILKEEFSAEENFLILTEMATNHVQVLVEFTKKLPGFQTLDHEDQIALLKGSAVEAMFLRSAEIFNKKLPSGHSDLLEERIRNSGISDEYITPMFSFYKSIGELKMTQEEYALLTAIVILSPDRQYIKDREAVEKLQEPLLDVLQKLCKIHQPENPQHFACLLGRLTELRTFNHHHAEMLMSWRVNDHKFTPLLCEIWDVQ
The test can be described thus: Radioligand Binding Assay (scintillation proximity radioligand displacement). As to conditions: GST-FXR LBD fusion protein on SPA beads, test compound 6×10^−9 M to 2.5×10^−5 M. The protocol:
The following tests were carried out in order to determine the activity of the compounds of formula (I). Background information on the binding assay can be found in: Nichols J S et al. “Development of a scintillation proximity assay for peroxisome proliferator-activated receptor gamma ligand binding domain”, (1998) Anal. Biochem. 257: 112-119.
Bacterial and mammalian expression vectors were constructed to produce glutathione-s-transferase (GST) and Gal4 DNA binding domain (GAL) proteins fused to the ligand binding domain (LBD) of human FXR (aa 193-473). To accomplish this, the portions of the sequences encoding the FXR LBD were amplified by polymerase chain reaction (PCR) from a full-length clone by PCR and then subcloned into the plasmid vectors. The final clone was verified by DNA sequence analysis.
The induction, expression, and subsequent purification of GST-LBD fusion protein was performed in E. coli strain BL21 (pLysS) cells by standard methods (Current Protocols in Molecular Biology, Wiley Press, ed. Ausubel et al.).
Radioligand Binding Assay
Binding of test substances to the FXR ligand binding domain was assessed in a radioligand displacement assay. The assay was performed in a buffer consisting of 50 mM Hepes, pH 7.4, 10 mM NaCl, 5 mM MgCl2, 0.01% CHAPS. For each reaction well in a 96-well plate, 40 nM of GST-FXR LBD fusion protein was bound to […] glutathione ytrium silicate SPA beads (PharmaciaAmersham) in a final volume of […] by shaking. A radioligand (e.g., 20 nM of 2,N-dicyclohexyl-2-[2-(2,4 dimethoxy-phenyl)-benzoimidazol-1-yl]-acetamide) and test compounds were added, and scintillation proximity counting was performed. All binding assays were performed in 96-well plates and the amount of bound ligand was measured on a Packard TopCount using OptiPlates (Packard). Dose response curves were performed within a range of test compound concentrations from 6×10^−9 M to 2.5×10^−5 M and IC50 values were calculated.
(SPA uses beads or plates that emit light when radiolabelled molecules are held near them.)
For the compound `O=C(O)c1ccc(COc2cc(Cl)ccc2-c2nc3cc(F)c(F)cc3n2Cc2cccc(Cl)c2)cc1` [Example 56, 4-{5-Chloro-2-[1-(3-chloro-benzyl)-5,6-difluoro-1H-benzoimidazol-2-yl]-phenoxymethyl}-benzoic acid], the 50% inhibitory concentration (IC50) – broadly, the concentration needed to halve the response being measured – turned out to be 500 nM.

`Fc1cc2nc(-c3ccc(Cl)cc3OCc3ccc(-c4nnn[nH]4)cc3F)n(CC3CCCCC3)c2cc1F` [Example 32, 2-{4-Chloro-2-[2-fluoro-4-(1H-tetrazol-5-yl)-benzyloxy]-phenyl}-1-cyclohexylmethyl-5,6-difluoro-1H-benzoimidazole]: the IC50 worked out at 10 nM. Compared with the last compound, the IC50 is about 50-fold lower. As to `O=C(O)c1ccc(COc2cc(Cl)ccc2-c2nc3cc(F)c(F)cc3n2CC2CCCCC2)cc1` [Example 23, 4-[5-Chloro-2-(1-cyclohexylmethyl-5,6-difluoro-1H-benzoimidazol-2-yl)-phenoxymethyl]-benzoic acid], the IC50 was 200 nM. Against the preceding compound, the IC50 is about 20-fold higher. Under `O=C(O)c1ccc(CCc2ccccc2-c2nc3cc(F)c(F)cc3n2CC2CCCCC2)cc1` [Example 77, 4-{2-[2-(1-Cyclohexylmethyl-5,6-difluoro-1H-benzoimidazol-2-yl)-phenyl]-ethyl}-benzoic acid] stands 30 nM; under `Fc1cc2nc(-c3cccnc3OCc3ccccc3Cl)n(CC3CCCCC3)c2cc1F` [Example 3, 2-[2-(2-Chloro-benzyloxy)-pyridin-3-yl]-1-cyclohexylmethyl-5,6-difluoro-1H-benzoimidazole], 700 nM; under `O=C(O)c1ccc(COc2ncccc2-c2nc3cc(F)c(F)cc3n2Cc2cccc(Cl)c2)cc1` [Example 14, 4-{3-[1-(3-Chloro-benzyl)-5,6-difluoro-1H-benzoimidazol-2-yl]-pyridin-2-yloxymethyl}-benzoic acid], 5200 nM.

On to `c1ccc(-c2nc3ccccc3n2CCC2CCCCC2)c(CCc2ccc(-c3nnn[nH]3)cc2)c1` [Example 83, 1-(2-Cyclohexyl-ethyl)-2-(2-{2-[4-(1H-tetrazol-5-yl)-phenyl]-ethyl}-phenyl)-1H-benzoimidazole], for which the half-maximal inhibitory concentration (IC50) stood at 10 nM. Under `O=C(O)CCc1ccc(Cn2c(-c3cccnc3OCC3CCCC3)nc3cc(F)c(F)cc32)cc1` [Example 18, 3-{4-[2-(2-Cyclopentylmethoxy-pyridin-3-yl)-5,6-difluoro-benzoimidazol-1-ylmethyl]-phenyl}-propionic acid] stands 30400 nM; under `Fc1cc2nc(-c3ccc(Cl)cc3OCC3CCCC3)n(Cc3ccc(-c4nnn[nH]4)cc3)c2cc1F` [Example 68, 2-(4-Chloro-2-cyclopentylmethoxy-phenyl)-5,6-difluoro-1-[4-(1H-tetrazol-5-yl)-benzyl]-1H-benzoimidazole], 40 nM. Consider `COc1cc(-c2nnn[nH]2)ccc1COc1cc(Cl)ccc1-c1nc2cc(F)c(F)cc2n1CC1CCCCC1` [Example 35, 2-{4-Chloro-2-[2-methoxy-4-(1H-tetrazol-5-yl)-benzyloxy]-phenyl}-1-cyclohexylmethyl-5,6-difluoro-1H-benzoimidazole], for which the half-inhibitory concentration (IC50) was 50 nM. Under `O=C(O)Cc1ccc(Cn2c(-c3ccc(Cl)cc3OCC3CCCC3)nc3cc(F)c(F)cc32)cc1` [Example 63, {4-[2-(4-Chloro-2-cyclopentylmethoxy-phenyl)-5,6-difluoro-benzoimidazol-1-ylmethyl]-phenyl}-acetic acid] stands 700 nM. Under `O=C(O)CCCCCn1c(-c2ccc(Cl)cc2OCC2CCCC2)nc2cc(F)c(F)cc21` [Example 65, 6-[2-(4-Chloro-2-cyclopentylmethoxy-phenyl)-5,6-difluoro-benzoimidazol-1-yl]-hexanoic acid] stands 3700 nM; under `FC1(F)CCC(Cn2c(-c3ccccc3CCc3ccc(-c4nnn[nH]4)cc3)nc3ccccc32)CC1` [Example 81, 1-(4,4-Difluoro-cyclohexylmethyl)-2-(2-{2-[4-(1H-tetrazol-5-yl)-phenyl]-ethyl}-phenyl)-1H-benzoimidazole], 40 nM.

Compound `CCC(CC)COc1cc(Cl)ccc1-c1nc2cc(F)c(F)cc2n1Cc1ccc(-c2nnn[nH]2)cc1F` [Example 88, 2-[4-Chloro-2-(2-ethyl-butoxy)-phenyl]-5,6-difluoro-1-[2-fluoro-4-(1H-tetrazol-5-yl)-benzyl]-1H-benzoimidazole] registered an IC50 of 10 nM. Under `O=C(O)COc1ccc(COc2cc(Cl)ccc2-c2nc3cc(F)c(F)cc3n2CC2CCCCC2)cc1` [Example 25, {4-[5-Chloro-2-(1-cyclohexylmethyl-5,6-difluoro-1H-benzoimidazol-2-yl)-phenoxymethyl]-phenoxy}-acetic acid] stands 100 nM; under `CCCCCn1c(-c2ccc(Cl)cc2OCc2ccc(-c3nnn[nH]3)cc2F)nc2cc(F)c(F)cc21` [Example 44, 2-{4-Chloro-2-[2-fluoro-4-(1H-tetrazol-5-yl)-benzyloxy]-phenyl}-5,6-difluoro-1-pentyl-1H-benzoimidazole], 100 nM. Under `Fc1cc2nc(-c3ccc(Cl)cc3OCC3CCC3)n(Cc3ccc(-c4nnn[nH]4)cc3F)c2cc1F` [Example 92, 2-(4-Chloro-2-cyclobutylmethoxy-phenyl)-5,6-difluoro-1-[2-fluoro-4-(1H-tetrazol-5-yl)-benzyl]-1H-benzoimidazole] stands 20 nM; under `Fc1cc2nc(-c3ccc(Cl)cc3CCc3ccc(-c4nnn[nH]4)cc3)n(CC3CCCCC3)c2cc1F` [Example 73, 2-(4-Chloro-2-{2-[4-(1H-tetrazol-5-yl)-phenyl]-ethyl}-phenyl)-1-cyclohexylmethyl-5,6-difluoro-1H-benzoimidazole], 10 nM; under `Fc1cc2nc(-c3ccccc3OCC3CCCC3)n(Cc3ccc(-c4nnn[nH]4)cc3F)c2cc1F` [Example 94, 2-(2-Cyclopentylmethoxy-phenyl)-5,6-difluoro-1-[2-fluoro-4-(1H-tetrazol-5-yl)-benzyl]-1H-benzoimidazole], 40 nM. Under `Fc1cc2nc(-c3ccccc3COc3ccc(-c4nnn[nH]4)c(F)c3)n(CC3CCCCC3)c2cc1F` [Example 41, 1-Cyclohexylmethyl-5,6-difluoro-2-{2-[3-fluoro-4-(1H-tetrazol-5-yl)-phenoxymethyl]-phenyl}-1H-benzoimidazole] stands 200 nM; under `Fc1cc2nc(-c3ccc(Cl)cc3OCC3CCCCC3)n(CC3CCCCC3)c2cc1F` [Example 22, 2-(4-Chloro-2-cyclohexylmethoxy-phenyl)-1-cyclohexylmethyl-5,6-difluoro-1H-benzoimidazole], 200 nM. The compound `Fc1cc2nc(-c3cccnc3OCC3CC3)n(CC3CCCCC3)c2cc1F` [Example 2, 1-Cyclohexylmethyl-2-(2-cyclopropylmethoxy-pyridin-3-yl)-5,6-difluoro-1H-benzoimidazole] came in with a half-inhibitory concentration (IC50) of 2900 nM.

In the case of `O=C(O)COc1ccc(COc2ncccc2-c2nc3cc(F)c(F)cc3n2CC2CCCCC2)cc1` [Example 5, {4-[3-(1-Cyclohexylmethyl-5,6-difluoro-1H-benzoimidazol-2-yl)-pyridin-2-yloxymethyl]-phenoxy}-acetic acid], the half-inhibitory concentration (IC50) stood at 12100 nM. Against the preceding compound, the IC50 is about 4.2-fold higher. Under `O=C(O)COc1ccc(COc2ncccc2-c2nc3cc(F)c(F)cc3n2Cc2cccc(Cl)c2)cc1` [Example 15, (4-{3-[1-(3-Chloro-benzyl)-5,6-difluoro-1H-benzoimidazol-2-yl]-pyridin-2-yloxymethyl}-phenoxy)-acetic acid] stands 2600 nM; under `O=C(Nc1cc(Cl)ccc1-c1nc2cc(F)c(F)cc2n1CC1CCCCC1)c1ccc(-c2nnn[nH]2)c(F)c1` [Example 85, N-[5-Chloro-2-(1-cyclohexylmethyl-5,6-difluoro-1H-benzoimidazol-2-yl)-phenyl]-3-fluoro-4-(1H-tetrazol-5-yl)-benzamide], 0.6 nM; under `O=C(O)CCCCCOc1cc(Cl)ccc1-c1nc2cc(F)c(F)cc2n1CC1CCCCC1` [Example 26, 6-[5-Chloro-2-(1-cyclohexylmethyl-5,6-difluoro-1H-benzoimidazol-2-yl)-phenoxy]-hexanoic acid], 2100 nM. Under `Fc1cc2nc(-c3ccc(Cl)cc3OCC3CC3)n(CC3CCCCC3)c2cc1F` [Example 21, 2-(4-Chloro-2-cyclopropylmethoxy-phenyl)-1-cyclohexylmethyl-5,6-difluoro-1H-benzoimidazole] stands 300 nM.

`O=C(O)COc1ccc(Cn2c(-c3ccc(Cl)cc3OCC3CCCC3)nc3cc(F)c(F)cc32)cc1` [Example 64, {4-[2-(4-Chloro-2-cyclopentylmethoxy-phenyl)-5,6-difluoro-benzoimidazol-1-ylmethyl]-phenoxy}-acetic acid] registered an IC50 of 200 nM.
